Columns and labels:
HDAC = HDAC inhibitory activity assay (FRET); format: biochemical; conditions: for Inhibition rate: test concentration 100 nM, relative to DMSO control; for IC50: HDAC, FRET, read-out: Half-maximal inhibitory concentration (IC50 ± SD)
Description: The HDAC inhibitory activity of the synthesized compounds was determined by fluorescence resonance energy transfer (FRET), and then compared with that of the positive control to screen out compounds with better activity. HDAC was obtained by purification or purchased directly.
The method was as follows.
An enzyme was added to reaction wells, a reaction buffer was added to control wells, a sample dissolved in DMSO was added to the reaction wells, and the wells were incubated using a contactless nanoflow sonic pipetting system (Ech-550; nanoflow). A fluorescent substrate was added to each reaction well and then rotated and shaken. The wells were incubated for 1-2 h at 30° C. under a sealed condition. A TMP26-containing chromogenic agent was added to terminate the reaction and produce fluorescence. The fluorescence intensity was detected using En Vision multi-label microplate detector (Perkin Elmer) (excitation light: 490 nm, emitted light: 520 nm). After the stabilization of color development, the endpoint value was read. The percentage (relative to the DMSO control group) inhibition rate was calculated using the software GraphPad Prism 4.

[1] = system: human prostate cancer cells PC-3; assay: In vitro anti-tumor activity, MTT method; format: cell-based; conditions: PC-3, MTT, 96-hour treatment
Description: (§1) The inhibitory effects of the compounds against human non-small cell lung cancer cell lines A549, NCI-H1650, human small cell lung cancer cell lines H446, human prostate cancer cells DU145, PC-3, LNCAP, human colon cancer cells lines HCT116, human breast cancer cells MDA-MB-231, and MCF7 tumor cell lines were determined using the MTT method.
(§2) The method was as follows. The cells in the exponential growth phase were collected to count living cells. The concentration of the cell suspension was adjusted using the corresponding medium of each group of cells. The cell suspension was added to the 96-well culture plate at 100 μL per cell, and the plate was placed in a 5% CO2 incubator at 37° C. and incubated for 24 h. Each test compound was dissolved in DMSO to prepare a stock solution with a corresponding concentration. Then, each stock solution was diluted 500-fold with the medium to prepare 4 replicate wells. 100 μL of the corresponding 500-fold solution was added to each well per cell line, with the final DMSO concentration of 0.1%. […] The half-maximal (relative to the DMSO control group) inhibition rate was calculated using the software GraphPad Prism 4.

[2] = system: human non-small cell lung cancer cell line A549; assay: In vitro anti-tumor activity, MTT method; format: cell-based; conditions: 96-hour treatment
Description: as §1, §2

[3] = system: human breast cancer cells MCF7; assay: In vitro anti-tumor activity, MTT method; format: cell-based; conditions: MCF-7, MTT, 96-hour treatment
Description: as §1, §2

[4] = system: human prostate cancer cells DU145; assay: In vitro anti-tumor activity, MTT method; format: cell-based; conditions: 96-hour treatment
Description: as §1, §2

Row | SMILES | Inhibition rate (HDAC) | IC50 ([1]; Homo sapiens, 96 h) | IC50 ([2]; Homo sapiens, A549, 96 h) | IC50 ([3]; Homo sapiens, MCF7, 96 h) | IC50 ([4]; Homo sapiens, DU-145, 96 h) | IC50 (HDAC) | Inhibition rate (HDAC; 0.1 µM) | IC50 [1] | IC50 [3] | IC50 [4] | IC50 [2]
1 | COc1cc(/C=C2\CC(=O)N(CCCCCCC(=O)NO)C2=O)cc(OC)c1OC [Example I-35, (E)-7-(3-(3,4,5-trimethoxybenzal)-2,5-diketopyrrolidinyl)-N-hydroxyheptamide] | 82.5% ± 3.5% | 1.71 ± 0.17 µM | 3.63 ± 0.65 µM | 1.27 ± 0.13 µM | 1.03 ± 0.14 µM |  |  |  |  |  | 
2 | COc1cc(Br)ccc1/C=C1\CC(=O)N(CCCCCCC(=O)NO)C1=O [Example I-40, (E)-7-(3-(4-bromo-2-methoxybenzal)-2,5-diketopyrrolidinyl)-N-hydroxyheptamide] |  | 0.67 ± 0.1 µM | 1.49 ± 0.09 µM | 0.32 ± 0.02 µM | 0.25 ± 0.04 µM | 0.0055 ± 3e-05 µM |  |  |  |  | 
3 | O=C(CCCCCCN1C(=O)C/C(=C\c2cccs2)C1=O)NO [Example I-23, (E)-7-(3-(2-methylenethienyl)-2,5-diketopyrrolidinyl)-N-hydroxyheptamide] | 84.9% ± 0.5% | 0.91 ± 0.07 µM | 3.44 ± 0.15 µM | 0.97 ± 0.05 µM | 0.54 ± 0.1 µM |  |  |  |  |  | 
4 | O=C(CCCCCCN1C(=O)C/C(=C\c2ccccc2O)C1=O)NO [Example I-37, (E)-7-(3-(2-hydroxybenzal)-2,5-diketopyrrolidinyl)-N-hydroxyheptamide] | 90.6% ± 0.9% | 1.93 ± 0.23 µM | 4.34 ± 0.69 µM | 0.8 ± 0.15 µM | 1.72 ± 0.12 µM |  |  |  |  |  | 
5 | O=C(CCCCCCN1C(=O)C/C(=C\c2cccc(I)c2)C1=O)NO [Example I-29, (E)-7-(3-(3-iodobenzal)-2,5-diketopyrrolidinyl)-N-hydroxyheptamide] | 91.3% ± 0.7% | 1.47 ± 0.15 µM | 5.09 ± 0.23 µM | 1.38 ± 0.12 µM | 0.91 ± 0.07 µM |  |  |  |  |  | 
6 | Cc1ccc(/C=C2\CC(=O)N(CCCCCCC(=O)NO)C2=O)cc1 [Example I-18, (E)-7-(3-(4-methylbenzal)-2,5-diketopyrrolidinyl)-N-hydroxyheptamide] |  |  | 1.88 ± 0.17 µM |  |  |  | 85.9% ± 0.9% | 2.2 ± 0.08 µM | 0.46 ± 0.04 µM | 0.31 ± 0.05 µM | 
7 | CCOc1ccccc1/C=C1\CC(=O)N(CCCCCCC(=O)NO)C1=O [Example I-38, (E)-7-(3-(2-ethoxybenzal)-2,5-diketopyrrolidinyl)-N-hydroxyheptamide] |  | 0.89 ± 0.05 µM | 1.78 ± 0.2 µM | 0.51 ± 0.07 µM | 0.34 ± 0.04 µM | 0.0167 ± 0.00021 µM |  |  |  |  | 
8 | O=C(CCCCCCN1C(=O)C/C(=C\c2cccc(Br)c2)C1=O)NO [Example I-27, (E)-7-(3-(3-bromobenzal)-2,5-diketopyrrolidinyl)-N-hydroxyheptamide] | 90.9% ± 1.2% | 1.06 ± 0.13 µM | 2.81 ± 0.1 µM | 0.83 ± 0.05 µM | 0.65 ± 0.09 µM |  |  |  |  |  | 
9 | CC(C)c1ccc(/C=C2\CC(=O)N(CCCCCCC(=O)NO)C2=O)cc1 [Example I-15, (E)-7-(3-(4-isopropylbenzal)-2,5-diketopyrrolidinyl)-N-hydroxyheptamide] | 81.4% ± 0.5% | 1.82 ± 0.16 µM | 3.68 ± 0.5 µM | 1.66 ± 0.14 µM | 1.35 ± 0.27 µM |  |  |  |  |  | 
10 | N#Cc1ccccc1/C=C1\CC(=O)N(CCCCCCC(=O)NO)C1=O [Example I-20, (E)-7-(3-(2-cyanobenzal)-2,5-diketopyrrolidinyl)-N-hydroxyheptamide] |  | 0.87 ± 0.1 µM | 2.82 ± 0.39 µM | 0.82 ± 0.05 µM | 0.74 ± 0.1 µM | 0.0401 ± 0.00121 µM |  |  |  |  | 
11 | Nc1cc(F)ccc1NC(=O)CCCCCCN1C(=O)C/C(=C\c2ccccc2)C1=O [Example I-9, (E)-N-(2-amino-4-fluorophenyl)-7-(3-benzal-2,5-diketopyrrolidinyl)heptamide] |  | > 20 µM | > 20 µM | > 20 µM | > 20 µM |  |  |  |  |  | 
12 | CN(C)c1ccc(/C=C2\CC(=O)N(CCCCCCC(=O)NO)C2=O)cc1 [Example I-16, (E)-7-(3-(4-dimethylaminobenzal)-2,5-diketopyrrolidinyl)-N-hydroxyheptamide] | 93.3% ± 1.0% | 1.75 ± 0.12 µM | 2.24 ± 0.08 µM | 1.16 ± 0.12 µM | 0.92 ± 0.03 µM |  |  |  |  |  | 
13 | O=C(CCCN1C(=O)C/C(=C\c2ccccc2)C1=O)N[C@H]1CCCC[C@@H]1O [Example I-10, 4-(3-((E)-benzal)-2,5-diketopyrrolidinyl)-N-((1S,2S)-2-hydroxycyclohexyl) butyramide] |  | > 20 µM | > 20 µM | > 20 µM | > 20 µM |  |  |  |  |  | 
14 | O=C(CCCCN1C(=O)C/C(=C\c2ccccc2)C1=O)N[C@H]1CCCC[C@@H]1O [Example I-11, 5-(3-((E)-benzal)-2,5-diketopyrrolidinyl)-N-((1S,2S)-2-hydroxycyclohexyl)pentanamide] |  | > 20 µM | > 20 µM | > 20 µM | > 20 µM |  |  |  |  |  | 
15 | O=C(CCCCCCN1C(=O)C/C(=C\c2ccccn2)C1=O)NO [Example I-21, (E)-7-(3-(2-methylenepyridin)-2,5-diketopyrrolidinyl)-N-hydroxyheptamide] | 88.3% ± 1.1% | 0.99 ± 0.04 µM | 2.25 ± 0.25 µM | 1.54 ± 0.09 µM | 0.67 ± 0.09 µM |  |  |  |  |  | 
16 | O=C(CCCCCN1C(=O)C/C(=C\c2ccccc2)C1=O)NO [Example I-3] |  | 4.27 ± 0.25 µM | 3.51 ± 0.15 µM | 2.58 ± 0.07 µM | 1.49 ± 0.21 µM |  |  |  |  |  | 
17 | O=C(CCCCCCN1C(=O)C/C(=C\c2ccccc2)C1=O)N[C@H]1CCCC[C@@H]1O [Example I-13, 7-(3-((E)-benzal)-2,5-diketopyrrolidinyl)-N-((1S,2S)-2-hydroxycyclohexyl)heptamide] | 0% | > 20 µM | > 20 µM | > 20 µM | > 20 µM |  |  |  |  |  | 
18 | O=C(NO)c1ccc(CN2C(=O)C/C(=C\c3ccccc3)C2=O)cc1 [Example I-41, (E)-4-((3-benzal-2,5-diketopyrrolidinyl)methyl)-N-hydroxybenzamide] | 77.1% ± 1.8% | 7.82 ± 0.9 µM | 3.09 ± 0.41 µM | 6.97 ± 0.83 µM | 2.54 ± 0.41 µM |  |  |  |  |  | 
19 | O=C(CCCCN1C(=O)C/C(=C\c2ccccc2)C1=O)NO [Example I-2] |  | > 20 µM | > 20 µM | > 20 µM | > 20 µM |  |  |  |  |  | 
20 | O=C(CCCN1C(=O)C/C(=C\c2ccccc2)C1=O)NO [Example I-1, (E)-4-(3-benzal-2,5-dioxopyrrolidinyl)-N-hydroxybutyramide] |  | > 20 µM | > 20 µM | > 20 µM | > 20 µM |  |  |  |  |  | 
21 | O=C(CCCCCCCN1C(=O)C/C(=C\c2ccccc2)C1=O)NO [Example I-5] |  | 5.01 ± 0.38 µM | 5.88 ± 0.58 µM | 3.89 ± 0.36 µM | 1.56 ± 0.18 µM |  |  |  |  |  | 
22 | Nc1cc(F)ccc1NC(=O)CCCN1C(=O)C/C(=C\c2ccccc2)C1=O [Example I-6, (E)-N-(2-amino-4-fluorophenyl)-4-(3-benzal-2,5-diketopyrrolidinyl) butyramide] |  |  |  |  |  |  |  | > 20 µM | > 20 µM | > 20 µM | > 20 µM

Source: patent US20260124191A1, “HISTONE DEACETYLASE INHIBITOR AND USES THEREOF” (NANJING HONGSHUN PHARMACEUTICAL TECHNOLOGY CO., LTD, priority 2023, published 2026)
